Experimental data taken from PubChem BioAssay (NCI).
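Growth conditions: 96-well plates. Treatment: test compound, 48 hours, 5 concentrations. Analysis: linear interpolation between bracketing concentrations; unreached endpoints set to highest concentration. TGI is the concentration that stops growth completely.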

Legend:
Experiment in all cases: inhibition of tumour cell growth, NCI panel, 48 h
MCF7 breast = system: MCF7 breast
UACC-257 melanoma = system: UACC-257 melanoma
A549 NSCLC = system: A549 NSCLC
NCI-H23 lung = system: NCI-H23 lung
BT-549 breast = system: BT-549 breast
M14 melanoma = system: M14 melanoma
HCC-2998 colon = system: HCC-2998 colon
SNB-19 CNS = system: SNB-19 CNS
UO-31 renal = system: UO-31 renal

Measured: TGI

C[Si](C)(C)C1=C2C(=O)c3ccccc3C(=O)C2=C([Si](C)(C)C)[C@@H]2CCCC[C@H]12
> 100 µM: all assays above
